# Patent US20200289434A1, “RAPIDLY IMPROVING ENDOTHELIAL FUNCTION, REDUCING ARTERIAL STIFFNESS AND REVERSING CALCIFICATION OF BLOOD VESSELS BY ADMINISTERING VITAMIN K” (KAYDENCE PHARMA AS, priority 2019, published 2020)
# Tests used:
# [1] = tested on: thrombin generation in platelet-poor mice plasma; assay: Example 3 second part: thrombin generation by calibrated automated thrombogram (CAT); type: in vivo; details: eight weeks, either dose
# Procedure: Thrombin generation was measured in platelet-poor mice plasma using calibrated automated thrombography (CAT) technique as described in Hemker H C, Giesen P, Al Dieri R, Regnault V, de Smedt E, Wagenvoord R, et al. Calibrated automated thrombin generation measurement in clotting plasma. Pathophysiol Haemost Thromb 2003; 33:4-15. doi:71636. Thrombin generation was activated by mixing 21 μL of diluted plasma (1:1 with BSA5 buffer) with 7 pIL of fluorogenic substrate (Z-Gly-Gly-Arg-AMC, 16.6 mM) and 14 μL of trigger solution containing phospholipids, tissue factor and CaCl2) (4 μM, […] and 16.6 mM, respectively). In the calibration wells, the 14 μL of reagents were replaced with calibrator (102 nM). Immediately after the activation, 5 μL of the mixture was pipetted on paper disks in a flat bottom 96-well polystyrene plate and covered with 40 μL of mineral oil. Fluorescent signals were measured using the Fluoroskan Ascent software (Thermo Labsystems, Helsinki, Finland) and transformed into thrombin concentration as described in Hemker H C, Kremers R. Data management in Thrombin Generation. Thromb Res 2013; 131:3-11. doi:10.1016/j.thromres.2012.10.011. The parameters analyzed included endogenous thrombin potential (ETP), peak thrombin concentration (peak), and lag time.
# [2] = mouse, in vivo
# [3] = Example 3 second part: lipid profile, liver enzymes and blood count; details: eight weeks
# [4] = tested on: endothelial nitric oxide synthase (eNOS)-dependent nitric oxide (NO) production; assay: Example 3: endothelial NO production in ex vivo aorta by EPR; details: 0.05 mg/kg b.w./day, vs untreated age-matched mice
# Text: For measurements of endothelial nitric oxide synthase (eNOS)-dependent nitric oxide (NO) production, EPR spin-trapping with diethyldithiocarbamic acid sodium salt (DETC) was used ex vivo, as described in Przyborowski K, Proniewski B, Czarny J, Smeda M, Sitek B, Zakrzewska A, et al. Vascular Nitric Oxide-Superoxide Balance and Thrombus Formation after Acute Exercise. Med Sci Sport Exerc 2018:1. doi:10.1249/MSS.0000000000001589, with minor modifications. Isolated aorta cleared from surrounding tissue was opened longitudinally and preincubated with 10 μM L-NIL (N6-(1-Iminoethyl)-lysine, hydrochloride) in Krebs-HEPES buffer for 30 minutes at 37° C. in a well of a 48-well plate. Next, 250 μL of Fe(DETC)2 colloid was added and aorta was stimulated with calcium ionophore A23187 (the final concentration was 1 μM) and subsequently, incubated for 90 minutes at 37° C. Finally, aorta was weighed and frozen in liquid nitrogen (suspended in fresh buffer) into the middle of a 400 μL column of Krebs-Hepes buffer and stored at −80° C. until measured. EPR spectra were obtained using an X-band EPR spectrometer (EMX Plus, Bruker, Germany), equipped with a rectangular resonator cavity H102. Signals were quantified by measuring the total amplitude of the NO—Fe(DETC)2 after correction of baseline. The quantitative results of NO production assessed by EPR were expressed in AU/mg of tissue.
# ApoE/LDLR−/− mice = assay: Example 3 first part: MRI assessment of endothelium-dependent vasodilatation (FMD in FA, Ach in AA), young mice; type: in vivo
# Procedure: Mice were randomly assigned to one of four experimental groups: control (untreated group) and three groups treated with vitamin K2 at a dose of 0.05, 0.5, and 5 mg/kg b.w./day, respectively. End-point measurements were performed at the age of 10-16 weeks.
# Magnetic resonance imaging (MRI) experiments were performed using a 9.4T scanner (BioSpec 94/20 USR, Bruker, Germany) located in the Department of Magnetic Resonance Imaging, Institute of Nuclear Physics, Polish Academy of Sciences in Krakow. During the experiment, mice were anaesthetized using isoflurane (Aerrane, Baxter Sp. z o. o., Poland, 1.7 vol %) in an oxygen and air (1:2) mixture and imaged in the supine position. Activity of the heart, respiration, and body temperature (maintained at 37° C. using circulating warm water) were monitored using a Monitoring and Gating System (SA Inc., Stony Brook, N.Y., USA).
# Endothelial function was assessed based on vascular responses to acetylcholine (Ach) administration in brachiocephalic artery (BCA), left common carotid artery (LCA) (FIGS. 6 A and B) and abdominal aorta (AA) (FIG. 6C) as well as to responses to increase in flow (flow-mediated dilatation, FMD) in femoral artery (FA) (FIG. 6D) as described in Bar A, Skorka T, Jasinski K, Sternak M, Bartel Z, Tyrankiewicz U, et al. Retrospectively-gated MRI for in vivo assessment of endothelium-dependent vasodilatation and endothelial permeability in murine models of endothelial dysfunction. NMR Biomed 2016; 29(8):1088.; Sternak M, Bar A, Adamski M G, Mohaissen T, Marczyk B, Kieronska A, et al. The Deletion of Endothelial Sodium Channel α (αENaC) Impairs Endothelium-Dependent Vasodilation and Endothelial Barrier Integrity in Endotoxemia in Vivo. Front Pharmacol 2018; 9:178. doi:10.3389/fphar.2018.00178.; and Bar A, Olkowicz M, Tyrankiewicz U, Kus E, Jasinski K, Smolenski R T, et al. Functional and Biochemical Endothelial Profiling In Vivo in a Murine Model of Endothelial Dysfunction; Comparison of Effects of 1-Methylnicotinamide and Angiotensin-converting Enzyme Inhibitor. Front Pharmacol 2017; 8:183. doi:10.3389/fphar.2017.00183.).
# Vasomotor response was examined by comparing two time-resolved 3D images of the vessels prior to and 25 minutes after intraperitoneal Ach administration (Sigma-Aldrich, Poznan Poland: 50 μl, 16.6 mg/kg), as well as prior to and 5 minutes after vessel occlusion. Images were acquired using the cine IntraGate™ FLASH 3D sequence, reconstructed with the IntraGate 1.2.b.2 macro (Bruker). End-diastolic volumes of vessels were analyzed using ImageJ software 1.46r (NIH Bethesda, Md., USA) and scripts written in Matlab (MathWorks, Natick, Mass., USA). Imaging parameters included the following: repetition time (TR)—6.4 ms, echo time (TE)—1.4 ms, field of view (FOV)—30×30×5 mm3, matrix size—256×256×30, flip angle (FA)—30°, and number of accumulations (NA)—15, reconstructed to 7 cardiac frames. Total scan time was 10 minutes.
# [5] = 0.05 mg/kg b.w./day, eight weeks
# [6] = 0.05 mg/kg b.w./day, four weeks, 15-week-old mice
compound,measurement,setting,value
"CC(C)=CCC/C(C)=C/CC/C(C)=C/CC/C(C)=C/CC/C(C)=C/CC/C(C)=C/CC/C(C)=C/CC1=C(C)C(=O)c2ccccc2C1=O [MK-7, menaquinone-7]",thrombin generation,[1],did not affect
same,"lipid profile, liver enzymes concentration, blood cell count",[2],did not affect
same,MPV,[3]; 0.03 mg/kg,5.20 ± 0.33
same,MPV,[3]; 10 mg/kg,4.97 ± 0.19
same,nitric oxide production in ex vivo aorta by EPR,[4],increased
same,"Ach response in AA, volume change",ApoE/LDLR−/− mice; [5],−0.65%
same,"FMD in FA, volume change",ApoE/LDLR−/− mice; [5],28.34%
same,"Ach response in AA, volume change",ApoE/LDLR−/− mice; [6],−1.59%
same,"FMD in FA, volume change",ApoE/LDLR−/− mice; [6],33.26%
same,endothelial function (FMD-FA and ACH-AA),"ApoE/LDLR−/− mice; 0.05 mg/kg b.w./day, two weeks",not sufficient to improve endothelial function
same,"Ach response in AA, volume change","ApoE/LDLR−/− mice; 0.5 mg/kg b.w./day, two weeks",1.52%
same,"FMD in FA, volume change","ApoE/LDLR−/− mice; 0.5 mg/kg b.w./day, two weeks",28.57%
same,"Ach response in AA, volume change","ApoE/LDLR−/− mice; 5 mg/kg b.w./day, two weeks",0.16%
same,"FMD in FA, volume change","ApoE/LDLR−/− mice; 5 mg/kg b.w./day, two weeks",26.55%
same,improvement in endothelial function compared with low dose for 4 weeks,"ApoE/LDLR−/− mice; 0.5 and 5 mg/kg b.w./day, four weeks",not superior
